Assay results from publication PMC9688225, “α-Lipoic Acid Derivatives as Allosteric Modulators for Targeting AMPA-Type Glutamate Receptors’ Gating Modules” (Cells, 2022).
Where two headings read alike, the source gives them in different places.

Legend:
[1] = target: T1, GluA1 AMPA receptor subunit (flip isoform) (Homo sapiens, UniProt P42261); experiment: Whole-cell patch-clamp electrophysiology, homomeric GluA1 expressed in HEK293 cells; assay type: cell-based; settings: for IC50: Hill fit
T1 construct: expressed in transfected cells; host or cells: HEK293
Protocol: (§1) Up to 20 μg of high-copy plasmid DNA was prepared using the QIAGEN Plasmid Mini Kit, the tubes were then centrifuged to extract the supernatant containing the plasmid DNA, ethanol was used to wash the DNA pellet, then centrifuged again and the supernatant was carefully removed as to not disturb the pellet, finally, the pellet was air-dried, and the DNA was re-dissolved in a suitable volume of buffer, (our prior study detailed the whole DNA preparation data). The flip isoform was used in all AMPAR subunits used in this investigation. AMPAR subunits were subcloned in pRK and expressed in the human embryonic kidney cells (HEK293) (The HEK293 cell line was obtained from Sigma, Schnelldorf, Germany). IPA (Integrated Patch Amplifier) recorded HEK293 cells 36–48 h after transfection using the patch-clamp method (Sutter Instruments, Novato, CA, USA). A high-speed piezo solution switcher was installed on a double-barreled glass (theta tube) to provide solutions fast, isolate receptor responses from any network influences, and preserve, as much as possible, the postsynaptic protein machinery. Thus, inhibition was measured by comparing the current recorded when glutamate alone was administered to the current observed when glutamate plus the compound of interest was delivered to the same cell. Before administering the α-LA compounds, experiments were conducted to determine the appropriate concentration to be delivered to the cells without harming them. Dichloromethane (12 µM) effect on GluA1 and GluA2 subunits was tested to ensure that it had no effect on AMPA receptor currents (Figure S8). The effect of α-LA compounds on AMPA subunits plateaued at a concentration of 12 µM because LA inhibits AMPA receptors at low concentrations and continues to inhibit them when LA concentrations are increased by 2 µM each interval, as shown in Figure S1. The concentration increased by 2 µM each time to ensure that no cells were harmed. The cells were washed for 20 s between α-LA derivatives (12 µM), and 10 mM glutamate was supplied alone after each α-LA compound to ensure cell health. Data analysis was carried out using Igor Pro7 (Wave Metrics, inc). For both desensitization (τw des) and deactivation rates (τw deact), an exponential fit to the current decline was obtained at 95% of peak to baseline current. The weighted tau (τw) was calculated as τw = (τf × af) + (τs × as), where af and as are the amplitudes of the fast (τf) and slow (τs) exponential components, respectively. Our study detailed the experimental data set.
(§2) Data are presented as mean ± standard error of the mean (SEM). The number of samples (n = 10) refers to the total number of tested HEK293 cells. Statistical differences between the groups and the wild type were examined by One Way Analysis of Variance (ANOVA), with values of p < 0.05 being considered to indicate statistical significance: (*) p < 0.05, (**) p < 0.01, (***) p < 0.001, ns, not significant. Concentration-response relationships were fitted as composite curves using GraphPad Prism version 6.01 (GraphPad Software, San Diego, CA, USA) to the Hill equation. All results were representative of at least three independent experiments.
(§3) Figure 2 Suppression of AMPA receptor currents by α-LA compounds. Graphs (a,c,e,g) present AMPA receptor currents (pA) before and after the administration of α-LA derivatives on GluA1, GluA1/2, GluA2, and GluA2/3 subunits. While (b,d,f,h) present the ratio A/AI, where A represents the current caused by 10 mM glutamate alone and AI represents the current induced by glutamate + α-LA (12 µM). The whole-cell current was measured at −60 mV, pH 7.4, and 22 °C. A one way analysis of variance (ANOVA) was performed for comparison: *** p < 0.001; ns, not significant. Ten cells were investigated for each LA compound. All values are shown as mean SEM.
(§4) Figure 3 The potency of LA compounds against AMPA receptor subunits. […]

[2] = target: T2, GluA1/2 AMPA receptor subunits (flip isoform) (Homo sapiens, UniProt P42261+P42262); experiment: Whole-cell patch-clamp electrophysiology, heteromeric GluA1/2 expressed in HEK293 cells; assay type: cell-based; settings: for IC50: Hill fit
T2 construct: expressed in transfected cells; host or cells: HEK293
Protocol: as §1, §2, §3, §4

[3] = target: T3, GluA2 AMPA receptor subunit (flip isoform) (Homo sapiens, UniProt P42262); experiment: Whole-cell patch-clamp electrophysiology, homomeric GluA2 expressed in HEK293 cells; assay type: cell-based; settings: for IC50: Hill fit
T3 construct: expressed in transfected cells; host or cells: HEK293
Protocol: as §1, §2, §3, §4

[4] = target: T4, GluA2/3 AMPA receptor subunits (flip isoform) (Homo sapiens, UniProt P42262+P42263); experiment: Whole-cell patch-clamp electrophysiology, heteromeric GluA2/3 expressed in HEK293 cells; assay type: cell-based; settings: for IC50: Hill fit
T4 construct: expressed in transfected cells; host or cells: HEK293
Protocol: as §1, §2, §3, §4

[5] = system: AMPA receptor subunits (GluA1, GluA2, GluA1/2, GluA2/3); experiment: Whole-cell patch-clamp electrophysiology, summary over the AMPA receptor subunits in HEK293 cells; assay type: cell-based
Protocol: as §1, §2
The levels of inhibition of α-LA and its derivatives attracted our attention to assessing the potency of the compounds in a concentration-dependent manner. […] The concentration−inhibition curves were produced by administering glutamate alone at a concentration of 10 mM, followed by glutamate + α-LA derivatives at varying concentrations (in μM) for every recording point. Afterward, the cells were normalized back by administering glutamate alone. Since the glutamate concentration in the synaptic cleft constantly saturates the receptors, driving the response to a near maximum level, variability occurs because the maximum level changes. […]

HEK293 cells = system: HEK293 cells; design: method as in PMID 23780308; settings: 8 µM α-lipoic acid; cited from earlier work
[6] = system: EA.hy926 endothelial cells; design: method as in PMID 18026819; settings: 40–80 µM α-lipoic acid; cited from earlier work
[7] = 10 mM glutamate + 12 µM compound, −60 mV, pH 7.4, 22 °C, mean ± SEM, n = 10
[8] = 10 mM glutamate, 12 µM compound, n = 10
[9] = whole-cell normalized peak amplitude, unit printed in the text, not in Table S6, read-out: IC50
[10] = all AMPA receptor subunits, 12 µM compound

T1 sequence (P42261 19-906 isoform P42261-2 limits assumed): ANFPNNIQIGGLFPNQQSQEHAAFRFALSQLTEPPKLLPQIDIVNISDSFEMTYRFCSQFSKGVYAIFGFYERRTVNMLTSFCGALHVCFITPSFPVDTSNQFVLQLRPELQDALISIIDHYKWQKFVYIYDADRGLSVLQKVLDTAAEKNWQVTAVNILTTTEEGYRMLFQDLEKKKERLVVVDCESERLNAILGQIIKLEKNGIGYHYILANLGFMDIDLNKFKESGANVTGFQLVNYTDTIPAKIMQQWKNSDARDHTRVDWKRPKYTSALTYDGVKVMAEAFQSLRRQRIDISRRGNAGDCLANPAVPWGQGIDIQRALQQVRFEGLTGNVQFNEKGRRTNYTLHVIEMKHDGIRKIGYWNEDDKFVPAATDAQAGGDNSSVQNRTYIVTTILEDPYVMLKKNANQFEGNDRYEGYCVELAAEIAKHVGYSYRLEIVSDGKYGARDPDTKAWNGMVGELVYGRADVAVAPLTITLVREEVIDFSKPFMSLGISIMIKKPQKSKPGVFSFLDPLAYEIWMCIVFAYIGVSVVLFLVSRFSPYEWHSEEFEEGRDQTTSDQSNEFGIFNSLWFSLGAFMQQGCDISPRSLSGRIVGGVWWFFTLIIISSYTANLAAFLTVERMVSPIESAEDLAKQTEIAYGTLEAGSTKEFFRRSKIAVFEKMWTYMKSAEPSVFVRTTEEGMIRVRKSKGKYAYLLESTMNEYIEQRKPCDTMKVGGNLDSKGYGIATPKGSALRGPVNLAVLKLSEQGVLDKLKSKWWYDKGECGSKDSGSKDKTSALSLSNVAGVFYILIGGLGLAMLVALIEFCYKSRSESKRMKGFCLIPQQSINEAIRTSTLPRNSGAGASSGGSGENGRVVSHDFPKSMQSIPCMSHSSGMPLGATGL
T2 sequence (P42261 19-906 isoform P42261-2 limits assumed): as above
T2 sequence (P42262 25-883 isoform P42262-2 limits assumed): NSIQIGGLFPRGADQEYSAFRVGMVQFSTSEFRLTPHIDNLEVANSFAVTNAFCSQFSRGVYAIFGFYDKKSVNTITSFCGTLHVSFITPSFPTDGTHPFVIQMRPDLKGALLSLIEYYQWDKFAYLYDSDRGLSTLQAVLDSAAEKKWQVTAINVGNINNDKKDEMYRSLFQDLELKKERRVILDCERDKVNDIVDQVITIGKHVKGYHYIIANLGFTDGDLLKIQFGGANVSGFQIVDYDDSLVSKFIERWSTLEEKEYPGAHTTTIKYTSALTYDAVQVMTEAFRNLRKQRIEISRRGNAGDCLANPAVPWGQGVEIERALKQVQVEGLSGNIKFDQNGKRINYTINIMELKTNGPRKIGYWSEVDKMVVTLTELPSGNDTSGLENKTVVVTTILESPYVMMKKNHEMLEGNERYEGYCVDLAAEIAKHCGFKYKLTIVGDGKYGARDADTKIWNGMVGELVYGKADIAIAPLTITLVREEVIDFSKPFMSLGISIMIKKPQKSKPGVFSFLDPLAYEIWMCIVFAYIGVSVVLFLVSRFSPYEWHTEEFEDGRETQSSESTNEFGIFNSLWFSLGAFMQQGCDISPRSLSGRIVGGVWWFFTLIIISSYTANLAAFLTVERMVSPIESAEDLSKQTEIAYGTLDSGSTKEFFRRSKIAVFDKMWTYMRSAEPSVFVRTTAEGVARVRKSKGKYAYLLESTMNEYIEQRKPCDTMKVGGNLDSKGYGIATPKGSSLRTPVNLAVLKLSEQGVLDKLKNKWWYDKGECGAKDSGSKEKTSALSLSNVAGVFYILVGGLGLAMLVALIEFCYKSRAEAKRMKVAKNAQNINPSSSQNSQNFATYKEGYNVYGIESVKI
T3 sequence (P42262 25-883 isoform P42262-2 limits assumed): as above
T4 sequence (P42262 25-883 isoform P42262-2 limits assumed): as above
T4 sequence (P42263 29-894 isoform P42263-2 limits assumed): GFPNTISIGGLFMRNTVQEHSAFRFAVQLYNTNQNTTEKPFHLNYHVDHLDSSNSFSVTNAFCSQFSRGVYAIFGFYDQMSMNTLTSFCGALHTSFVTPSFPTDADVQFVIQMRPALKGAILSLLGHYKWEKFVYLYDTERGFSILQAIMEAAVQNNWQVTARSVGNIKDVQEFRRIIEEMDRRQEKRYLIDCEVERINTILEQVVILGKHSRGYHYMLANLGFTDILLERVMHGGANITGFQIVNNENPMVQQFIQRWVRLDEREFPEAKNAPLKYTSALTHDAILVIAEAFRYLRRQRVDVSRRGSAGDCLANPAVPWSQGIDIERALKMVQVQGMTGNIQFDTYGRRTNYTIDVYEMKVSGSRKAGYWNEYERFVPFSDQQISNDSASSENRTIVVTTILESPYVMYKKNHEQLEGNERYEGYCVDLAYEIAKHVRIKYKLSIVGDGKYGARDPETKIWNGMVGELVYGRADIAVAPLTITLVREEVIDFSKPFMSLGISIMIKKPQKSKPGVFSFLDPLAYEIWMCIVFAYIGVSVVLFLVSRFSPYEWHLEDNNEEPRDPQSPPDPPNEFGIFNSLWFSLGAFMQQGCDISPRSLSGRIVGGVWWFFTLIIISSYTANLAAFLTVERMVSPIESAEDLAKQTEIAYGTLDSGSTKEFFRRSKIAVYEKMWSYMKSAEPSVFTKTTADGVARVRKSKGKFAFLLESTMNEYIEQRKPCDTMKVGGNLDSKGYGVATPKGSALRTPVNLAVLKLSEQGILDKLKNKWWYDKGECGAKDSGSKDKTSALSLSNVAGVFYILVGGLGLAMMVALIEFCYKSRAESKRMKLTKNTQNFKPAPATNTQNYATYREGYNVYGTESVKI

Amplitude (glutamate + compound) [1, 7]: 102±14.0 pA
A/AI (current with glutamate alone / current with glutamate + compound) [1, 8]: 9.26±0.6
IC50 ([1]; read-out: Log IC50 (converted)): 3.55 µM
t deact (weighted deactivation time constant) ([1]; glutamate + 12 µM compound, glutamate alone 2.2±0.1 ms): 9.1 ± 0.6 ms
IC50 [1, 9]: 3.54 µM
Amplitude (glutamate + compound) [2, 7]: 69±10.0 pA
A/AI (current with glutamate alone / current with glutamate + compound) [2, 8]: 9.13±0.9
IC50 ([2]; read-out: Log IC50 (converted)): 3.89 µM
t deact (weighted deactivation time constant) ([2]; glutamate + 12 µM compound, glutamate alone 2.5±0.3 ms): 8.9 ± 0.5 ms
IC50 [2, 9]: 3.86 µM
Amplitude (glutamate + compound) [3, 7]: 136±22 pA
A/AI (current with glutamate alone / current with glutamate + compound) [3, 8]: 9.09±0.8
IC50 ([3]; read-out: Log IC50 (converted)): 3.89 µM
t deact (weighted deactivation time constant) ([3]; glutamate + 12 µM compound, glutamate alone 2.4±0.1 ms): 8.8 ± 0.5 ms
IC50 [3, 9]: 3.93 µM
Amplitude (glutamate + compound) [4, 7]: 60±11.0 pA
A/AI (current with glutamate alone / current with glutamate + compound) [4, 8]: 8.93±1.0
IC50 ([4]; read-out: Log IC50 (converted)): 3.98 µM
t deact (weighted deactivation time constant) ([4]; glutamate + 12 µM compound, glutamate alone 2.4±0.3 ms): 8.6 ± 0.7 ms
IC50 [4, 9]: 4.01 µM
IC50 ([5]; over GluA1, GluA1/2, GluA2, GluA2/3, read-out: approximate IC50 against AMPA receptor subunits): 3.5 to 4 µM
SMILES: O=C(O)CCCCC1CCSS1 (stereo not drawn) [α-LA, alpha-Lipoic acid, reference compound]
t des (weighted desensitization time constant) ([1]; glutamate + 12 µM compound, glutamate alone 2.3±0.1 ms): 1.3 ± 0.1 ms
t des (weighted desensitization time constant) ([2]; glutamate + 12 µM compound, glutamate alone 5.3±0.4 ms): 3.3 ± 0.3 ms
t des (weighted desensitization time constant) ([3]; glutamate + 12 µM compound, glutamate alone 2.6±0.1 ms): 1.5 ± 0.04 ms
t des (weighted desensitization time constant) ([4]; glutamate + 12 µM compound, glutamate alone 2.7±0.3 ms): 1.6 ± 0.09 ms
increase of the rate of AMPA receptor deactivation (τw deact) [5, 10]: about 4 fold
reduction in the rate of desensitization (τw des) [5, 10]: 2 fold
increase of the ratio A/AI ([5]; all AMPA receptor subunits, glutamate alone vs glutamate + compound): 9 fold
harm to the cells (HEK293 cells): without noticing any harm
toxicity to the cells [6]: without causing toxicity
